Results reported in the NIST ThermoML archive (doi:10.1016/j.fluid.2004.10.028).

Experiment: wn = mass fraction of the nth substance listed
Details: Liquid, Capillary tube (Ostwald / Ubbelohde) method

O=S(=O)([O-])[O-].[Na+].[Na+] [sodium sulfate] + O
viscosity [mPa·s]
Details	100 kPa	10000 kPa	20000 kPa	30000 kPa	40000 kPa
298.15 K, w1 = 0.015	0.933	0.9335	0.9365	0.9399	0.942
298.15 K, w1 = 0.03	0.9746	0.9759	0.9769	0.9799	0.9812
298.15 K, w1 = 0.05	1.035	1.04	1.041	1.042	1.044
298.15 K, w1 = 0.07	1.119	1.119	1.119	1.121	1.122
298.15 K, w1 = 0.1	1.252	1.255	1.256	1.257	1.258
298.15 K, w1 = 0.15	1.545	1.548	1.55	1.551	1.554
298.15 K, w1 = 0.2	1.963	1.965	1.966	1.967	1.968
303.15 K, w1 = 0.23	1.993	1.993	1.996	1.999	2.002
303.15 K, w1 = 0.26	2.243	2.245	2.249	2.253	2.259
323.05 K, w1 = 0.1	0.7656	0.767	0.771	0.7745	0.778
323.15 K, w1 = 0.03	0.5972	0.5991	0.6012	0.6054	0.609
323.15 K, w1 = 0.2	1.168	1.17	1.176	1.181	1.185
323.15 K, w1 = 0.23	1.333	1.336	1.34	1.346	1.353
323.15 K, w1 = 0.26	1.504	1.505	1.509	1.515	1.523
323.25 K, w1 = 0.07	0.6825	0.6846	0.6875	0.6902	0.6935
323.4 K, w1 = 0.15	0.9286	0.9316	0.9354	0.9401	0.945
323.7 K, w1 = 0.015	0.5669	0.5741	0.5795	0.5821	0.5835
323.8 K, w1 = 0.05	0.6285	0.632	0.633	0.636	0.6385
347.2 K, w1 = 0.05	0.4434	0.4465	0.4496	0.453	0.4587
347.6 K, w1 = 0.07	0.4733	0.4764	0.4795	0.4824	0.4875
347.9 K, w1 = 0.2	0.7892	0.7944	0.8004	0.8053	0.811
348.15 K, w1 = 0.015	0.395	0.3977	0.4006	0.4038	0.4087
348.35 K, w1 = 0.03	0.4107	0.4134	0.4169	0.42	0.4225
348.42 K, w1 = 0.1	0.5232	0.5267	0.5294	0.534	0.5399
348.6 K, w1 = 0.26	1.01	1.017	1.023	1.029	1.041
348.7 K, w1 = 0.15	0.6292	0.6336	0.6367	0.6418	0.6473
348.7 K, w1 = 0.23	0.8925	0.8987	0.9053	0.9128	0.92
370.4 K, w1 = 0.23	–	0.6799	0.6864	0.6905	0.6997
371.95 K, w1 = 0.05	–	0.3317	0.335	0.3389	0.343
372.4 K, w1 = 0.1	–	0.3948	0.3979	0.3998	0.4062
372.8 K, w1 = 0.15	–	0.4705	0.4743	0.4795	0.484
372.9 K, w1 = 0.03	–	0.3096	0.3124	0.3164	0.3186
373.8 K, w1 = 0.015	–	0.2947	0.2994	0.3034	0.3065
373.9 K, w1 = 0.07	–	0.3482	0.3508	0.3546	0.359
374.5 K, w1 = 0.2	–	0.5699	0.5743	0.5799	0.5875
375.2 K, w1 = 0.26	–	0.7321	0.7395	0.7436	0.7535
395.4 K, w1 = 0.15	–	0.3731	0.3767	0.381	0.386
395.62 K, w1 = 0.05	–	0.2626	0.2668	0.2695	0.2716
397.1 K, w1 = 0.07	–	0.2772	0.2799	0.2834	0.287
397.21 K, w1 = 0.2	–	0.4505	0.454	0.4598	0.4654
398.4 K, w1 = 0.03	–	0.2422	0.2468	0.2494	0.251
398.72 K, w1 = 0.1	–	0.3052	0.3094	0.3132	0.3159
398.8 K, w1 = 0.23	–	0.5081	0.5124	0.5185	0.5253
399.01 K, w1 = 0.015	–	0.2321	0.2367	0.2398	0.2412
399.4 K, w1 = 0.26	–	0.5695	0.5739	0.58	0.5895
420.3 K, w1 = 0.2	–	0.3686	0.3729	0.3775	0.3826
421.3 K, w1 = 0.15	–	0.2998	0.3027	0.3087	0.3114
421.4 K, w1 = 0.1	–	0.2535	0.2565	0.2596	0.2635
